{
  "source": "patent US8921563B2",
  "about": "“1-[(4-hydroxypiperidin-4-yl)methyl]pyridin-2(1H)-one derivatives, preparation methods and uses thereof” (Institue of Pharmacology and Toxicology Academy of Military …, priority 2010, dated 2014)",
  "key": {"mice [1]": {"tested_on": "mice", "experiment": "Novel object recognition test in mice", "format": "in vivo", "details": "repeated daily, tested day 8, mice", "description": "Novel object recognition test is a cognitive behavior model established by Lima, et al.\n1) Experimental device: a white Perspex box (60×60×16 cm), two completely identical objects, and one completely different object.\n2) Experimental method: Male Kunming mice weighing 20-25 g. The mice were intragastrically administered with YL-0911 or vehicle (distilled water) for 5 days. On day 6, after treatment with YL-0911 or vehicle, each mouse was placed into the Perspex box at the same place for 5 min as habituation. On day 7, the mice were administered YL-0911 or vehicle and then individually placed in the Perspex box at the same place containing two identical objects located in the two diagonal corners for 5 minutes. On day 8, mice were tested for memory using the same procedure as day 7 except that one of the familiar objects was replaced with a novel object."}, "5-HT1A receptor [2]": {"target": "T1, 5-HT1A receptor (Rattus norvegicus, UniProt P19327)", "T1 construct": "the content of 5-HT1A receptor extracted from rat hippocampi was 5.5 mg/ml; from tissue; host or cells: Wistar rat hippocampus, membrane preparation", "T1 sequence (P19327 1-422)": "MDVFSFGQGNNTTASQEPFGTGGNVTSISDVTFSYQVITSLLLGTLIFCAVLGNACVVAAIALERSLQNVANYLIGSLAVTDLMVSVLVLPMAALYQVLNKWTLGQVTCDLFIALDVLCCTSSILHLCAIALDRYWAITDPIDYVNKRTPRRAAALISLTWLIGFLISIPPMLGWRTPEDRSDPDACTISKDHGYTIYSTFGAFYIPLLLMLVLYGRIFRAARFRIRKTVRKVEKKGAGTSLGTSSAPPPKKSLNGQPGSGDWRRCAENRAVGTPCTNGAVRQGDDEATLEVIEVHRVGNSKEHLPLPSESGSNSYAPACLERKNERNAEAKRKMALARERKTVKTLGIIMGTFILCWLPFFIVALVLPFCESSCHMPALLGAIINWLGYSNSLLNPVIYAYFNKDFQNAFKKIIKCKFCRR", "experiment": "Competitive binding test of YL-0911 and positive drugs to 5-HT1A receptor (extracted from hippocampi)", "details": "[3H]-8-OH-DPAT 0.25 nM", "description": "1) Test tubes were placed in 37° C. reactor.\n3) To the test tubes, 20 μl of the drug to be tested (selecting a concentration ranging from 10^−3-10^−10M) was added.\nIC50 and Kd were used to calculate Ki value."}, "mice [3]": {"tested_on": "mice", "experiment": "Hole board test in mice", "format": "in vivo", "details": "long-term (23 days); for Number of Head dips / Time of head dipping: 5 min", "description": "Hole board test, an animal model of anxiety established by Boissie, et al (1962), was performed in mice.\n1) Experimental device: a transparent Perspex box (40×40×27 cm) which had four holes (3 cm in diameter, 1.8 cm in depth) in the floor. The distance of each hole center to its closest wall is 10 cm.\n2) Experimental method: Male Kunming mice weighing 20-25 g. The mice were intragastrically administered with YL-0911 or vehicle (distilled water). After 23 days, the mice were placed at center of the hole board with their backs facing to the observer. A head dip was scored if the animal's head dipped into the hole at least up to eye level The latency to the first head-dip, the number of head-dips and the time spent in head-dipping were recorded for 5 min."}, "NET": {"target": "NET (Homo sapiens, UniProt P23975)", "sequence (P23975 whole entry)": "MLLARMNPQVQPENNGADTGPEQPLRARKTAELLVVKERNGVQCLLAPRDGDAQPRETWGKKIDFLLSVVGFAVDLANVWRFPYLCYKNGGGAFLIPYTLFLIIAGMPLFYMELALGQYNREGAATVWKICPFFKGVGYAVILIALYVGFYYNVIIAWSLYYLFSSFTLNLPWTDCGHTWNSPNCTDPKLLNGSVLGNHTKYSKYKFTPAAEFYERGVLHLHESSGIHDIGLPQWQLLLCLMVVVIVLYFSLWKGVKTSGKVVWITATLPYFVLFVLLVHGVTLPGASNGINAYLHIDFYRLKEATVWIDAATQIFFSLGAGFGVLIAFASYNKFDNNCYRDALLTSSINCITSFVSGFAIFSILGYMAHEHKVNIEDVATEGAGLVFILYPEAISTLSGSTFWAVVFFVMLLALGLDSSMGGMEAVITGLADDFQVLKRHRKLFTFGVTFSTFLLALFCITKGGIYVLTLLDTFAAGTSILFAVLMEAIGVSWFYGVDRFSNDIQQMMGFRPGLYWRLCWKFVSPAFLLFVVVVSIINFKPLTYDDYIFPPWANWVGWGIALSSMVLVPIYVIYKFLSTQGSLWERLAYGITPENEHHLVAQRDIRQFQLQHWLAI", "experiment": "Preliminary test of NET binding effect of YL-0911", "details": "10^-5 and 10^-7 mol/L; NET protein from HEK-293 cell line", "excerpt": "(4) Preliminary Test of NET Binding Effect of YL-0911 and Positive Control Drugs\nTwo different drug concentrations, 10^−5 and 10^−7 mol/L, were used to determine the binding effect of YL-0911 on NET protein extracted from the HEK-293 cell lines of stably expression NET."}, "5-HT1A receptor [4]": {"target": "T1, 5-HT1A receptor", "experiment": "Screening: competitive binding test to 5-HT1A receptor using [3H]-8-OH-DPAT, rat hippocampi membrane protein", "details": "[3H]-8-OH-DPAT 1.28 nM, read-out: Inhibition percent (I %), competitive binding to 5-HT1A receptor", "description": "1.4.1 Screening of YL Series Compounds\n(1) Preparation of Membrane Proteins in Rat Hippocampi\nWister rats, 220-260 g, female and male, were sacrificed by decapitation and hippocampis were rapidly separated, weighed and to which homogenized in 10 times volume of Tris-HCl buffer solution (50 mM Tris-HCl, 5 mM MgCl2,1 mM EDTA, 0.5% (WN) BSA, 1 mM PMSF, 3 μg/ml proteinase inhibitor, 0.1% NaN3, 0.32M sucrose, pH 7.4) at 15,000 rpm for 30 s, total 5 times. The homogenate was centrifuged under 1000×g for 10 minutes and the supernatant was then centrifuged under 39000×g for 10 minutes. The precipitate was collected, and resuspended with 10 times volume of Tris-HCl buffer solution (pH 7.4) relative to the original weight, then centrifuged under 39000×g for 10 minutes. The precipitate was washed with the same buffer solution, centrifuged under 39000×g for 10 minutes and the precipitate was suspended with the above buffer solution. After sub-packaged (the whole operation procedures were performed under ice bath), the product was stored at −80° C. The protein concentration was measured by Lowrry method.\n1) In the 5-HT1A receptor binding test, tubes are firstly placed under reaction condition of 25° C.\n2) To all of the tubes, the receptor proteins extracted from rat hippocampi in an amount of 100 μg were added in sequence.\n4) To the test tubes, 30 μl of the compound in corresponding concentrations (used for screening: 10^−5, 10^−7, 10^−9M) was added in sequence.\n6) Tris-HCl buffer solution (50 mM Tris-HCl, 1 mM EDTA, 5 mM MgCl2, 0.1 mM PMSF, 0.1% NaN3, pH 7.4) was supplied to all of the tubes to reach a volume of 300 μl.\n7) The reaction was performed at 25° C. for 1 h.\n8) Then samples were applied to 49-type glass fibre filter, vacuum suction filtered, then washed three times with 2 ml ice-cold Tris-HCl buffer solution (50 mM Tris-HCl buffer solution, 1 mM EDTA, 5 mM MgCl2, 1 mM PMSF, 0.1% NaN3, 3 μg/ml proteinase inhibitor, pH 7.4). […] The radio-activity was measured by a scintillation counter."}},
  "data": [
    {"compound": "O=c1ccccn1CC1(O)CCN(Cc2ccccc2)CC1", "note": "[Compound 1, 1-[(1-benzyl-4-hydroxypiperidin-4-yl)-methyl]-pyridin-2(1H)-one]", "values": [
      {"measurement": "Recognition index", "setting": "mice [1]; 0.625 mg/kg p.o.", "value": "59.95 ± 2.74"},
      {"measurement": "Recognition index", "setting": "mice [1]; 1.25 mg/kg p.o.", "value": "64.76 ± 5.02"},
      {"measurement": "Ki", "setting": "5-HT1A receptor [2]", "value": "0.44 ± 0.32", "unit": "nM"},
      {"measurement": "the latency to the first head-dip", "setting": "mice [3]; 0.625 mg/kg p.o.", "value": "62.60 ± 16.75", "unit": "s"},
      {"measurement": "Number of Head dips", "setting": "mice [3]; 0.625 mg/kg p.o.", "value": "6.40 ± 0.97"},
      {"measurement": "Time of head dipping", "setting": "mice [3]; 0.625 mg/kg p.o.", "value": "3.75 ± 0.91", "unit": "s"},
      {"measurement": "the latency to the first head-dip", "setting": "mice [3]; 1.25 mg/kg p.o.", "value": "33.00 ± 6.34", "unit": "s"},
      {"measurement": "Number of Head dips", "setting": "mice [3]; 1.25 mg/kg p.o.", "value": "10.60 ± 1.17"},
      {"measurement": "Time of head dipping", "setting": "mice [3]; 1.25 mg/kg p.o.", "value": "6.86 ± 0.55", "unit": "s"},
      {"measurement": "the latency to the first head-dip", "setting": "mice [3]; 5 mg/kg p.o.", "value": "31.60 ± 6.88", "unit": "s"},
      {"measurement": "Number of Head dips", "setting": "mice [3]; 5 mg/kg p.o.", "value": "7.40 ± 1.00"},
      {"measurement": "Time of head dipping", "setting": "mice [3]; 5 mg/kg p.o.", "value": "5.95 ± 0.93", "unit": "s"},
      {"measurement": "affinity to NET (selectivity)", "setting": "NET", "value": "obviously lower than the affinity to SERT and 5-HT1A"},
      {"measurement": "inhibition at 10 µM", "setting": "5-HT1A receptor [4]; compound 10^-5 mol/L", "value": 100, "unit": "%"},
      {"measurement": "inhibition at 0.1 µM", "setting": "5-HT1A receptor [4]; compound 10^-7 mol/L", "value": 85, "unit": "%"},
      {"measurement": "melting point", "value": "216 to 218", "unit": "°C"}
    ]}
  ]
}
